Measurements reported in ChEMBL document CHEMBL1933065, “Synthesis and antifungal evaluation of pyrido[1,2-a]indole-1,4-diones and benzo[f]pyrido[1,2-a]indole-6,11-diones” (2012).
≈ marks a conversion by molar mass, not a printed value.

What was measured:
Type in all cases: functional
[1] = tested on: Candida albicans; assay: Antifungal activity against Candida albicans Berkout KCCM 50235 after 1 day by standard two fold broth dilution method; conditions: Berkout KCCM 50235, 24 h
[2] = tested on: Candida tropicalis; assay: Antifungal activity against Candida tropicalis Berkout KCCM 50662 after 1 day by two fold broth dilution method; conditions: Berkout KCCM 50662, 24 h
[3] = tested on: Pichia kudriavzevii; assay: Antifungal activity against Candida krusei Berkout KCCM 11655 after 1 day by two fold broth dilution method; conditions: Berkout KCCM 11655, 24 h
[4] = tested on: Cryptococcus neoformans; assay: Antifungal activity against Cryptococcus neoformans Berkout KCCM 50564 after 1 day by two fold broth dilution method; conditions: Berkout KCCM 50564, 24 h
[5] = tested on: Aspergillus niger; assay: Antifungal activity against Aspergillus niger KCTC 1231 after 2 days by two fold broth dilution method; conditions: KCTC 1231, 48 h
[6] = tested on: Aspergillus flavus; assay: Antifungal activity against Aspergillus flavus KCCM 11899 after 2 days by two fold broth dilution method; conditions: KCCM 11899, 48 h

Row | Compound | MIC [1] [µg/mL] | MIC [2] [µg/mL] | MIC [3] [µg/mL] | MIC [4] [µg/mL] | MIC [5] [µg/mL] | MIC [6] [µg/mL]
1 | CC(=O)c1c2c(n3ccc(C)cc13)C(=O)C(C)=C(C)C2=O | 1.6 (≈ 5.69 µM) | 6.3 (≈ 22.4 µM) | 12.5 (≈ 44.4 µM) | 1.6 (≈ 5.69 µM) | 3.2 (≈ 11.4 µM) | 3.2 (≈ 11.4 µM)
2 | COc1ccn2c3c(c(C(C)=O)c2c1)C(=O)C(C)=C(C)C3=O | 25 (≈ 84.1 µM) | 25 (≈ 84.1 µM) | 3.2 (≈ 10.8 µM) | 6.3 (≈ 21.2 µM) | 3.2 (≈ 10.8 µM) | 25 (≈ 84.1 µM)
3 | CCc1ccn2c3c(c(C(C)=O)c2c1)C(=O)C(C)=C(C)C3=O | 6.3 (≈ 21.3 µM) | 12.5 (≈ 42.3 µM) | 3.2 (≈ 10.8 µM) | 6.3 (≈ 21.3 µM) | 1.6 (≈ 5.42 µM) | 3.2 (≈ 10.8 µM)
4 | CC(=O)c1c2c(n3cc(Cl)ccc13)C(=O)C(C)=C(C)C2=O | 6.3 (≈ 20.9 µM) | 12.5 (≈ 41.4 µM) | 3.2 (≈ 10.6 µM) | 6.3 (≈ 20.9 µM) | 1.6 (≈ 5.3 µM) | 3.2 (≈ 10.6 µM)
5 | CCOC(=O)c1c2c(n3ccc(C)cc13)C(=O)C(C)=C(C)C2=O | 6.3 (≈ 20.2 µM) | 50 (≈ 161 µM) | 6.3 (≈ 20.2 µM) | 12.5 (≈ 40.1 µM) | 3.2 (≈ 10.3 µM) | 6.3 (≈ 20.2 µM)
6 | CCOC(=O)c1c2c(n3ccc(OC)cc13)C(=O)C(C)=C(C)C2=O | 12.5 (≈ 38.2 µM) | 6.3 (≈ 19.2 µM) | 6.3 (≈ 19.2 µM) | 50 (≈ 153 µM) | 3.2 (≈ 9.78 µM) | 3.2 (≈ 9.78 µM)
7 | CCOC(=O)c1c2c(n3cc(C)ccc13)C(=O)C(C)=C(C)C2=O | 12.5 (≈ 40.1 µM) | 12.5 (≈ 40.1 µM) | 12.5 (≈ 40.1 µM) | 3.2 (≈ 10.3 µM) | 25 (≈ 80.3 µM) | 12.5 (≈ 40.1 µM)
8 | COC(=O)c1c2c(n3ccc(OC)cc13)C(=O)C(C)=C(C)C2=O | 6.3 (≈ 20.1 µM) | 25 (≈ 79.8 µM) | 12.5 (≈ 39.9 µM) | 1.6 (≈ 5.11 µM) | 25 (≈ 79.8 µM) | 25 (≈ 79.8 µM)
9 | CCc1ccn2c3c(c(C(=O)OC)c2c1)C(=O)C(C)=C(C)C3=O | 3.2 (≈ 10.3 µM) | 12.5 (≈ 40.1 µM) | 25 (≈ 80.3 µM) | 0.8 (≈ 2.57 µM) | 1.6 (≈ 5.14 µM) | 6.3 (≈ 20.2 µM)
10 | COC(=O)c1c2c(n3ccc(C)cc13)C(=O)C(C)=C(C)C2=O | 6.3 (≈ 21.2 µM) | 6.3 (≈ 21.2 µM) | 6.3 (≈ 21.2 µM) | 25 (≈ 84.1 µM) | 6.3 (≈ 21.2 µM) | 3.2 (≈ 10.8 µM)
11 | CC1=C(C)C(=O)c2c(cc3cc(C)ccn23)C1=O | 12.5 (≈ 52.2 µM) | 6.3 (≈ 26.3 µM) | 12.5 (≈ 52.2 µM) | 6.3 (≈ 26.3 µM) | 12.5 (≈ 52.2 µM) | 1.6 (≈ 6.69 µM)
12 | COc1ccn2c3c(cc2c1)C(=O)C(C)=C(C)C3=O | 6.3 (≈ 24.7 µM) | 6.3 (≈ 24.7 µM) | 12.5 (≈ 49 µM) | 1.6 (≈ 6.27 µM) | 12.5 (≈ 49 µM) | 6.3 (≈ 24.7 µM)
13 | CCOC(=O)c1c2c(n3ccccc13)C(=O)C(C)=C(C)C2=O | 12.5 (≈ 42 µM) | 6.3 (≈ 21.2 µM) | 3.2 (≈ 10.8 µM) | 6.3 (≈ 21.2 µM) | 6.3 (≈ 21.2 µM) | 3.2 (≈ 10.8 µM)
14 | CCOC(=O)c1c2c(n3ccc(C#N)cc13)C(=O)C(C)=C(C)C2=O | 3.2 (≈ 9.93 µM) | 3.2 (≈ 9.93 µM) | 6.3 (≈ 19.5 µM) | 6.3 (≈ 19.5 µM) | 6.3 (≈ 19.5 µM) | 3.2 (≈ 9.93 µM)
15 | CCOC(=O)c1c2c(n3ccc(CC)cc13)C(=O)C(C)=C(C)C2=O | 6.3 (≈ 19.4 µM) | 12.5 (≈ 38.4 µM) | 6.3 (≈ 19.4 µM) | 6.3 (≈ 19.4 µM) | 12.5 (≈ 38.4 µM) | 6.3 (≈ 19.4 µM)
16 | CCc1ccn2c3c(c(C(C)=O)c2c1)C(=O)c1ccccc1C3=O | 50 (≈ 158 µM) | > 100 | 50 (≈ 158 µM) | 25 (≈ 78.8 µM) | 25 (≈ 78.8 µM) | 12.5 (≈ 39.4 µM)
17 | COc1ccc2c(C(C)=O)c3c(n2c1)C(=O)c1ccccc1C3=O | 3.2 (≈ 10 µM) | 3.2 (≈ 10 µM) | 6.3 (≈ 19.7 µM) | 12.5 (≈ 39.1 µM) | 6.3 (≈ 19.7 µM) | 12.5 (≈ 39.1 µM)
18 | CCOC(=O)c1c2c(n3ccc(C)cc13)C(=O)c1ccccc1C2=O | 6.3 (≈ 18.9 µM) | 3.2 (≈ 9.6 µM) | 12.5 (≈ 37.5 µM) | 6.3 (≈ 18.9 µM) | 12.5 (≈ 37.5 µM) | 25 (≈ 75 µM)

Row | Compound | MIC [1] [µg/mL] | MIC [2] [µg/mL] | MIC [3] [µg/mL] | MIC [4] [µg/mL] | MIC [5] [µg/mL] | MIC [6] [µg/mL]
19 | CCOC(=O)c1c2c(n3ccc(OC)cc13)C(=O)c1ccccc1C2=O | 12.5 (≈ 35.8 µM) | 25 (≈ 71.6 µM) | 25 (≈ 71.6 µM) | 3.2 (≈ 9.16 µM) | 6.3 (≈ 18 µM) | 12.5 (≈ 35.8 µM)
20 | CCOC(=O)c1c2c(n3ccc(CC)cc13)C(=O)c1ccccc1C2=O | 25 (≈ 72 µM) | 50 (≈ 144 µM) | > 100 | 25 (≈ 72 µM) | > 100 | 50 (≈ 144 µM)
21 | CCOC(=O)c1c2c(n3cc(C)ccc13)C(=O)c1ccccc1C2=O | 12.5 (≈ 37.5 µM) | 6.3 (≈ 18.9 µM) | 25 (≈ 75 µM) | 12.5 (≈ 37.5 µM) | 3.2 (≈ 9.6 µM) | 25 (≈ 75 µM)
22 | COC(=O)c1c2c(n3ccc(OC)cc13)C(=O)c1ccccc1C2=O | 25 (≈ 74.6 µM) | 50 (≈ 149 µM) | 50 (≈ 149 µM) | 25 (≈ 74.6 µM) | 3.2 (≈ 9.54 µM) | 12.5 (≈ 37.3 µM)
23 | CCc1ccn2c3c(c(C(=O)OC)c2c1)C(=O)c1ccccc1C3=O | 6.3 (≈ 18.9 µM) | 12.5 (≈ 37.5 µM) | 50 (≈ 150 µM) | 12.5 (≈ 37.5 µM) | 3.2 (≈ 9.6 µM) | 25 (≈ 75 µM)
24 | COC(=O)c1c2c(n3cc(C)ccc13)C(=O)c1ccccc1C2=O | 25 (≈ 78.3 µM) | > 100 | 50 (≈ 157 µM) | 25 (≈ 78.3 µM) | 25 (≈ 78.3 µM) | 50 (≈ 157 µM)
25 | Cc1ccn2c3c(cc2c1)C(=O)c1ccccc1C3=O | 12.5 (≈ 47.8 µM) | 12.5 (≈ 47.8 µM) | 6.3 (≈ 24.1 µM) | 6.3 (≈ 24.1 µM) | 50 (≈ 191 µM) | 3.2 (≈ 12.2 µM)
26 | COc1ccn2c3c(cc2c1)C(=O)c1ccccc1C3=O | 50 (≈ 180 µM) | 25 (≈ 90.2 µM) | > 100 | > 100 | 25 (≈ 90.2 µM) | 6.3 (≈ 22.7 µM)
27 | Cc1ccn2c3c(c(C)c2c1)C(=O)c1ccccc1C3=O | 6.3 (≈ 22.9 µM) | 12.5 (≈ 45.4 µM) | 50 (≈ 182 µM) | 12.5 (≈ 45.4 µM) | 3.2 (≈ 11.6 µM) | 25 (≈ 90.8 µM)
28 | COc1ccn2c3c(c(C)c2c1)C(=O)c1ccccc1C3=O | 25 (≈ 85.8 µM) | > 100 | 50 (≈ 172 µM) | 25 (≈ 85.8 µM) | 25 (≈ 85.8 µM) | 50 (≈ 172 µM)
29 | CCc1ccn2c3c(c(C)c2c1)C(=O)c1ccccc1C3=O | 12.5 (≈ 43.2 µM) | 12.5 (≈ 43.2 µM) | 6.3 (≈ 21.8 µM) | 6.3 (≈ 21.8 µM) | 50 (≈ 173 µM) | 3.2 (≈ 11.1 µM)
30 | CC1=C(C)C(=O)C([n+]2ccc(C)cc2)=C(Cl)C1=O.[Cl-] | 12.5 | 6.3 | 6.3 | 3.2 | 25 | 6.3
31 | COc1cc[n+](C2=C(Cl)C(=O)C(C)=C(C)C2=O)cc1.[Cl-] | 25 | 100 | 12.5 | 6.3 | 25 | 25
32 | Cc1cc[n+](C2=C(Cl)C(=O)c3ccccc3C2=O)cc1.[Cl-] | > 100 | > 100 | > 100 | > 100 | 50 | > 100
33 | COc1cc[n+](C2=C(Cl)C(=O)c3ccccc3C2=O)cc1.[Cl-] | > 100 | 50 | > 100 | 50 | > 100 | > 100
34 | CCOC(=O)c1c2c(n3ccccc13)C(=O)c1ccccc1C2=O | > 100 | 25 (≈ 78.3 µM) | 12.5 (≈ 39.1 µM) | 25 (≈ 78.3 µM) | 12.5 (≈ 39.1 µM) | 6.3 (≈ 19.7 µM)
35 | OC(Cn1cncn1)(Cn1cncn1)c1ccc(F)cc1F [FLUCONAZOLE] | 50 (≈ 163 µM) | 3.2 (≈ 10.4 µM) | 25 (≈ 81.6 µM) | 6.3 (≈ 20.6 µM) | 6.3 (≈ 20.6 µM) | 25 (≈ 81.6 µM)
36 | Nc1nc(=O)[nH]cc1F [FLUCYTOSINE] | 3.2 (≈ 24.8 µM) | 6.3 (≈ 48.8 µM) | 6.3 (≈ 48.8 µM) | 6.3 (≈ 48.8 µM) | 6.3 (≈ 48.8 µM) | 25 (≈ 194 µM)
